Experiments:
Type in all cases: in vivo, mouse
normal mice [1] = assay: Spontaneous motor activity in normal mice (open field test); conditions: i.p. PA-915 30 mg/kg, ketamine 20 mg/kg, fluoxetine 20 mg/kg, 30 min before vs 30 min after administration
Method: (1) The effects of PA-915, ketamine and the existing drug fluoxetine on normal mice were evaluated by an open field test (test to measure spontaneous locomotion in a novel environment by exploiting the properties of mice to do exploratory behavior in such a novel environment, and using a 45 cm×45 cm box of 30 cm in height).
Male C57BL/6J mice (8 to 12 weeks old) were placed in the box (illuminance: 100 lx) and allowed to freely explore the box for 60 minutes. Then, a vehicle (V: 10% DMSO solution; dissolved in saline; n=8), PA-915 (PA: 30 mg/kg; n=9), ketamine (K: 20 mg/kg; n=8) or fluoxetine (F: 20 mg/kg; n=11) was intraperitoneally administered thereto (0.1 mL/10 g). Spontaneous motor activity was measured by using the total distances traveled for 30 minutes before administration and for 30 minutes after administration as indexes. The data was indicated by mean±standard error. **P<0.01; *P<0.05 (Two-way ANOVA followed by Tukey-Kramer test).

normal mice [2] = assay: Prepulse inhibition (PPI) test in normal mice; conditions: i.p. PA-915 30 mg/kg, ketamine 20 mg/kg
Method: A vehicle (V: 10% DMSO solution; dissolved in saline; n=13), PA-915 (PA: 30 mg/kg; n=10) or ketamine (K: 20 mg/kg; n=15) was intraperitoneally administered (0.1 mL/10 g) to male C57BL/6J mice (8 to 12 weeks old), which were then acclimatized to 65 dB background noise for 5 minutes in the apparatus. The mice were randomly stimulated 20 times with 50-msec 120 dB startle sound or with 20-msec 73 dB, 77 dB, and 81 dB prepulse sounds and 50-msec 120 dB startle sound 50 msec after each prepulse sound for 30 minutes from the completion of acclimatization. In this respect, the ratio of PPI was calculated according to [(Average startle amplitude without prepulse)−(Average startle amplitude of trial with prepulse)]/(Average startle amplitude without prepulse)×100. The data was indicated by mean±standard error. **P<0.01; *P<0.05 (One-way ANOVA followed by Tukey-Kramer test).

[3] = test system: plasma corticosterone level; assay: Repeated corticosterone administration, plasma corticosterone level (ELISA); conditions: male mice, corticosterone 20 mg/kg s.c. 21 days; single i.p. PA-915 30 mg/kg, ketamine 20 mg/kg; next day
Method: A vehicle (0.5% carboxymethylcellulose solution) or corticosterone (20 mg/kg) was subcutaneously administered (0.1 mL/10 g) to male C57BL/6J mice (7 weeks old) for 21 days. A vehicle (10% DMSO solution; dissolved in saline; n=4), PA-915 (30 mg/kg; n=4) or ketamine (20 mg/kg; n=4) was intraperitoneally administered thereto (0.1 mL/10 g) 3 hours after administration on the 21st day. On the next day, the mice were subjected to the forced swim test and then decapitated, and systemic circulating blood was collected. The plasma corticosterone level was measured using Corticosterone ELISA kit from Cayman Chemical Company. Mice given the vehicle by repeated administration without repeated corticosterone administration were used as a control (n=4). The data was indicated by mean±standard error. **P<0.01 (One-way ANOVA followed by Tukey-Kramer test).

**Q.** Which “change in spontaneous motor activity (total distance traveled)” value (normal mice [1]) does the source give for `CNC1(c2ccccc2Cl)CCCCC1=O` (stereo not drawn) [ketamine] here?
**A.** increase in spontaneous motor activity

**Q.** And the “influence on prepulse inhibition (PPI ratio)” value (normal mice [2])?
**A.** caused prepulse inhibition deficits

**Q.** And the “effect on plasma corticosterone level” value [3]?
**A.** decreased the plasma corticosterone level
